Measurements reported in paper PMC10085697 (2023).

What was measured:
[1] = test system: Mango II (RNA, aptamer) GCACGUACGAAGGAGAGGAGAGGAAGAGGAGAGUACGUGC; test: absorbance shift and fluorescence light-up; details: 140 mM KCl; 10 mM Tris-HCl pH 7.5, 5 μM dye, 5 μM RNA
[2] = test system: Mango IV (RNA, aptamer) GCACGUACCGAGGGAGUGGUGAGGAUGAGGCGAGUACGUGC; test: absorbance shift and fluorescence light-up; details: 140 mM KCl; 10 mM Tris-HCl pH 7.5, 5 μM dye, 5 μM RNA
[3] = test system: Broccoli (RNA, aptamer) GGGAGACGGUCGGGUCCAGAUAUUCGUAUCUGUCGAGUAGAGUGUGGGCUC; test: absorbance and fluorescence titration; details: 140 mM KCl; 10 mM Tris-HCl pH 7.5
[4] = test system: ds_Mango II (RNA, aptamer) GGUGUGGGGCACGUACGAAGGAGAGGAGAGGAAGAGGAGAGUACGUGCCCCACA; test: fluorescence light-up; details: 140 mM KCl
[5] = test system: Control G4 RNA (utr-z) (RNA, G4) GGCGGCGGCAGUGGCGGCGG; test: fluorescence light-up; details: 140 mM KCl; 10 mM Tris-HCl pH 7.5, 5 μM dye, 5 μM RNA
[6] = test system: Broccoli (RNA, aptamer) GGGAGACGGUCGGGUCCAGAUAUUCGUAUCUGUCGAGUAGAGUGUGGGCUC; test: fluorescence titration; details: affinity called insignificant compared to that of Mango II; highest concentration not stated
[7] = test system: Mango II (RNA, aptamer) GCACGUACGAAGGAGAGGAGAGGAAGAGGAGAGUACGUGC; test: fluorescence light-up titration (Monolith NT.115); details: 140 mM KCl; 10 mM Tris-HCl pH 7.5, 0.05% Tween-20, 25 °C, 10 nM dye; rough evaluation
[8] = test system: Mango IV (RNA, aptamer) GCACGUACCGAGGGAGUGGUGAGGAUGAGGCGAGUACGUGC; test: fluorescence light-up titration (Monolith NT.115); details: 140 mM KCl; 10 mM Tris-HCl pH 7.5, 0.05% Tween-20, 25 °C, 10 nM dye; rough evaluation

Row | Compound | binding [1] | binding [2] | binding [5] | also measured
1 | CC1=CC(C)(C)N(C)c2ccc(/C=C/c3sc4ccccc4[n+]3Cc3cn(CCOCCOCCOCCNC(=O)CCCC[C@@H]4SC[C@@H]5NC(=O)N[C@@H]54)nn3)cc21 | yes | yes |  | 
2 | CC1=N/C(=C\c2cc(F)c(O)c(F)c2)C(=O)N1C |  |  |  | binding [3]: yes
3 | CN1C=CC(=Cc2sc3ccccc3[n+]2CC(=O)NCCOCCOCCOCCNC(=O)CCCC[C@@H]2SC[C@@H]3NC(=O)N[C@@H]32)c2ccccc21 | yes | yes | yes | binding ([4]; buffer stated for 4b only): yes
4 | CN1C=CC(=Cc2sc3ccccc3[n+]2Cc2cn(CCOCCOCCOCCNC(=O)CCCC[C@@H]3SC[C@@H]4NC(=O)N[C@@H]43)nn2)c2ccccc21 | yes | yes | yes | 

Continued, in another order:

Row | binding [1] | binding [2] | binding [5] | Compound | also measured
5 |  |  | weak | CN(C)c1ccc(/C=C/c2sc3ccccc3[n+]2Cc2cn(CCOCCOCCOCCNC(=O)CCCC[C@@H]3SC[C@@H]4NC(=O)N[C@@H]43)nn2)cc1 | binding ([4]; 20 mM sodium phosphate pH 7.2, 0.05% Tween-20, 1 μM): yes; binding [6]: no; KD [7]: 80 ± 60 nM; KD [8]: 0.6 ± 0.4 µM
6 | yes | yes |  | O=C(CCCC[C@@H]1SC[C@@H]2NC(=O)N[C@@H]21)NCCOCCOCCOCCn1cc(C[n+]2c(/C=C/c3cc4c5c(c3)CCCN5CCC4)sc3ccccc32)nn1 | 
